The values that follow are results of earlier work, collected in patent publication US11685721B2, “Human plasma kallikrein inhibitors” (BioCryst Pharmaceuticals, Inc., priority 2014, dated 2023).

For the series, the system named is patients with hereditary angioedema (HAE).

On to `NC(N)=NCCC[C@@H](N)C(=O)N[C@@H](CCCN=C(N)N)C(=O)N1CCC[C@H]1C(=O)N1C[C@H](O)C[C@H]1C(=O)NCC(=O)N[C@@H](Cc1cccs1)C(=O)N[C@@H](CO)C(=O)N1Cc2ccccc2C[C@@H]1C(=O)N1[C@H](C(=O)N[C@@H](CCCN=C(N)N)C(=O)O)C[C@@H]2CCCC[C@@H]21` [Icatibant], for which the “treating HAE” value (hereditary angioedema) was “effective”. Take ecallantide [DX-88]: under “patients with hereditary angioedema (HAE)”, the edema result is “alleviates edema”.
